Data on 23 molecules can be found in patent US5559144A, “Furyl and thienyl alkynyl-N-hydroxy urea derivatives” (Abbott Laboratories, priority 1995, dated 1996).

Molecules are shown by their SMILES.

In assay [1] the test system is Leukotrienes (biosynthesis). Description: Inhibition of leukotriene biosynthesis in vivo after oral administration, rat peritoneal anaphylaxis model. The following applies: 1 h, gavage one hour prior to antigen challenge, read-out: Percent Inhibition of Leukotrienes; for inhibition in vivo at 30 µmol/kg: Oral Dose at 30 μmol/kg; for inhibition in vivo at 100 µmol/kg: Oral Dose at 100 μmol/kg; for inhibition in vivo at 200 µmol/kg: Oral Dose at 200 μmol/kg. How it is done:
Inhibition of the biosynthesis of leuktrienes in vivo after oral administration of compound was determined using a rat peritoneal anaphylaxis model in a similar manner as that described by Young and coworkers (Young, P. R.; Dyer, R. D.; Carter, G. W. Fed. Proc., Fed. Am. Soc. Exp. Biol. 1985, 44, 1185). In this model rats were injected intraperitoneally (ip) with rabbit antibody to bovine serum albumin (BSA) and three hours later injected ip with BSA to induce an antgen-antibody response. Rats were sacrificed 15 minutes after this challenge and the peritoneal fluids were collected and analyzed for leukotriene levels. Test compounds were administered by gavage one hour prior to the antigen challenge. Percent inhibition values were determined by comparing the treatment group to the mean of the control group.

The target of assay [2] is T1, 5-Lipoxygenase from RBL-1 20,000xg Supernatant (Rattus norvegicus, UniProt P12527).
T1 construct: 20,000 xg supernatant from 1.5 million homogenized RBL-1 cells; endogenous in cells; host or cells: RBL-1 cells (20,000 xg supernatant of homogenate)
T1 sequence (P12527 1-673): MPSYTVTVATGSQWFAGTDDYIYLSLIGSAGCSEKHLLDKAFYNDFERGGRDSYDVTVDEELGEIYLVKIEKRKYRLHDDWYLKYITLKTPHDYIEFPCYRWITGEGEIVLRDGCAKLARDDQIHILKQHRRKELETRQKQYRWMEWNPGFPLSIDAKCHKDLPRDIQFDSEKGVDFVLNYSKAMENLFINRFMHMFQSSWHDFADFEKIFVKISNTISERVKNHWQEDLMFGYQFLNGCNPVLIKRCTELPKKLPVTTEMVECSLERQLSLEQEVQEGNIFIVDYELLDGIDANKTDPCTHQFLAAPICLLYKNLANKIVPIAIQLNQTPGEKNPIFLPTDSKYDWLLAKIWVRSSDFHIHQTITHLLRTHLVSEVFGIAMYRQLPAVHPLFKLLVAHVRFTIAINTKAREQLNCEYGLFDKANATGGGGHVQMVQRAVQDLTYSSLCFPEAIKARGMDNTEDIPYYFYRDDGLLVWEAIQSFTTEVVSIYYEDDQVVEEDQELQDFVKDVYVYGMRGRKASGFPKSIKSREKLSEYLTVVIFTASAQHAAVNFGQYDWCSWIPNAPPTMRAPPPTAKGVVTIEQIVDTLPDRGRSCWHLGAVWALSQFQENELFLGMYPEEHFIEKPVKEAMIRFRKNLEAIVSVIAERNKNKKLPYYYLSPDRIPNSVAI
Nature of the assay: 5-lipoxygenase inhibitory activity, 20,000 xg supernatant from homogenized RBL-1 cells. The format is biochemical. The following applies: radiolabeled arachidonic acid, triplicate. The procedure:
Assays to determine 5-lipoxygenase inhibitory activity of representative compounds of the present invention were performed in […] incubations containing the 20,000 xg supernatant from 1.5 million homogenized RBL-1 cells and various concentrations of the test compound. Reactions were initiated by addition of radiolabeled arachidonic acid and terminated by acidification and ether extraction. Reaction products were separated from nonconverted substrate by thin layer chromatography and measured by liquid scintillation spectroscopy. All incubations are performed in triplicate. Inhibition of 5-lipoxygenase activity was calculated as the ratio of the amount of product formed in the presence and absence of inhibitor. […] (Dyer, R. D.; Haviv, F.; Hanel, A. M.; Bornemier, D. A.; Carter, G. W. Fed. Proc., Fed. Am. Soc. Exp. Biol. 1984, 43, 1462A).

As a reminder, the IC50 is the concentration at which inhibition is half-maximal. Lower therefore signals greater potency in that assay. In the case of `Cc1ccc(Oc2ccc(C#CC(C)N(O)C(N)=O)o2)cc1` (stereo not shown) [Example 62, N-hydroxy-N-{4-[5-(4-methylphenoxy)-2-furyl]-3-butyn-2-yl}urea], the inhibition in vivo at 30 µmol/kg in assay [1] turned out to be 65%. In assay [2], this molecule had an IC50 of 300 nM.
For the molecule `CCc1ccc(C#CC(C)N(O)C(=O)NC)cc1` (stereo not shown) [Example 25, N-Hydroxy-N-[4-(4-ethylphenyl)-3-butyn-2-yl]-N'-methylurea], the inhibition in vivo at 100 µmol/kg in assay [1] is 69%. The IC50 in assay [2] turned out to be 400 nM.
The like results for `Cc1ccc(Oc2cccc(C#CCN(O)C(N)=O)c2)cc1` [Example 36, N-Hydroxy-N-[3-[3-(4-methylphenoxy)phenyl]-2-propynyl]urea] were, in that order, 99% and 600 nM.
The like results for `CC(C#Cc1cccc(Oc2ccccn2)c1)N(O)C(N)=O` (stereo not shown) [Example 47, N-Hydroxy-N-[4-[3-(2-pyridinyloxy)phenyl]-3-butyn-2-yl]urea] were, in that order, 99% and 900 nM.
The like results for `CC(C#CCc1ccccc1)N(O)C(N)=O` (stereo not shown) [Example 30, N-Hydroxy-N-(5-phenyl-3-pentyn-2-yl)urea] were, in that order, 95% and 2100 nM.
For `CC(C#CCCCc1ccccc1)N(O)C(N)=O` (stereo not shown) [Example 11, N-Hydroxy,N-(7-phenyl-3-heptyn-2-yl)urea], the inhibition in vivo at 200 µmol/kg in assay [1] turned out to be 99%. Besides, 700 nM corresponded to half-maximal inhibition in assay [2] (IC50).
Regarding `CC(C#Cc1cccc(Oc2ccc(F)cc2)c1)N(O)C(N)=O` (stereo not shown) [Example 43, N-Hydroxy-N-[4-[3-(4-fluorophenoxy)phenyl]-3-butyn-2-yl]urea], the inhibition in vivo at 100 µmol/kg in assay [1] was determined as 98%. This molecule also had an IC50 in assay [2] of 300 nM.
Turning to `CCC(C#Cc1cccc(Oc2ccccn2)c1)N(O)C(N)=O` (stereo not shown) [Example 64, N-Hydroxy-N-[5-[3-(2-pyridinyloxy)phenyl]-4-pentyn-3-yl]urea], in assay [1], the inhibition in vivo at 30 µmol/kg was determined as 78%. The IC50 in assay [2] was 600 nM.
In the same order, the values of `CC(C#Cc1cccc(Oc2cccc(Cl)n2)c1)N(O)C(N)=O` (stereo not shown) [Example 68, N-Hydoxy-N-[4-[3-(6-chloropyridin-2-yloxy)phenyl]-3-butyn-2-yl]urea] are 61% and 200 nM.
Regarding `NC(=O)N(O)CC#Cc1cccc(Oc2ccc(F)cc2)c1` [Example 44, N-Hydroxy-N-[3-[3-(4-fluorophenoxy)phenyl]-2-propynyl]urea], the inhibition in vivo at 100 µmol/kg in assay [1] stood at 99%. 400 nM corresponded to half-maximal inhibition in assay [2] (IC50).
The like results for `CC(C#CCCc1ccccc1)N(O)C(N)=O` (stereo not shown) [Example 26, N-Hydroxy-N-(6-phenyl-3-hexyn-2-yl)urea] were, in that order, 78% and 900 nM.
Consider `Cc1cccc(Oc2cccc(C#CC(C)N(O)C(N)=O)c2)n1` (stereo not shown) [Example 67, N-Hydroxy-N-[4-[3-(6-methylpyridin-2-yloxy)phenyl]-3-butyn-2-yl]urea], for which the inhibition in vivo at 30 µmol/kg in assay [1] turned out to be 56%. Besides, the IC50 in assay [2] stood at 300 nM.
As to `CC(C#Cc1cccc(Oc2ccncc2)c1)N(O)C(N)=O` (stereo not shown) [Example 46, N-Hydroxy-N-[4-[3-(4-pyridinyloxy)phenyl]-3-butyn-2-yl]urea], the inhibition in vivo at 100 µmol/kg in assay [1] came to 98%. In addition, in assay [2], the IC50 came out at 1200 nM.
For the molecule `CC(C#Cc1ccc(Oc2ccc(F)cc2)o1)N(O)C(N)=O` (stereo not shown) [Example 57, N-hydroxy-N-{4-[5-(4-fluorophenoxy)-2-furyl]-3-butyn-2-yl}urea], in assay [1], the inhibition in vivo at 30 µmol/kg worked out at 83%. Besides, the IC50 in assay [2] turned out to be 200 nM.
In the case of `CC(C#Cc1ccc(Sc2ccccc2)o1)N(O)C(N)=O` (stereo not shown) [Example 59, N-hydroxy-N-[4-(5-thiophenoxy-2-furyl)-3-butyn-2-yl]urea], in assay [1], the inhibition in vivo at 30 µmol/kg was 62%. In addition, the IC50 in assay [2] was determined as 200 nM.
Take `CC(C#Cc1ccc(F)cc1)N(O)C(N)=O` (stereo not shown) [Example 21, N-Hydroxy-N-[4,(4-fluorophenyl)-3-butyn-2-yl]urea]: in assay [1], the inhibition in vivo at 100 µmol/kg came out at 90%. For the same molecule, in assay [2], the IC50 was 2100 nM.
In the same order, the values of `CC(C#Cc1ccc(Cl)cc1)N(O)C(N)=O` (stereo not shown) [Example 19, N-Hydroxy-N-[4-(4-chlorophenyl)-3-butyn-2-yl]urea] are 82% and 400 nM.
In the case of `CC(C#Cc1ccccc1)N(O)C(N)=O` (stereo not shown) [Example 1, N-Hydroxy-N(4-phenyl-3-butyn-2-yl)urea], the inhibition in vivo at 200 µmol/kg in assay [1] was found to be 98%. The molecule further showed an IC50 in assay [2] of 2400 nM.
Turning to `NC(=O)N(O)CC#Cc1ccccc1` [Example 32, N-Hydroxy-N,(3,phenyl-2-propynyl)urea], the inhibition in vivo at 100 µmol/kg in assay [1] came out at 97%. Inhibition in assay [2] was half-maximal at 5900 nM (IC50).
The like results for `CNC(=O)N(O)C(C)C#Cc1ccc(Cl)cc1` (stereo not shown) [Example 20, N-Hydroxy-N-[4-(4-chlorophenyl)-3-butyn-2-yl]-N'-methylurea] were, in that order, 89% and 1100 nM.
On to `CC(C#Cc1ccc(Br)cc1)N(O)C(N)=O` (stereo not shown) [Example 17, N-Hydroxy-N-[4-(4-bromophenyl)-3-butyn-2-yl]urea], for which the inhibition in vivo at 200 µmol/kg in assay [1] was 98%. Half-maximal inhibition in assay [2] (IC50) was put at 800 nM.
In the same order, the values of `CC(C#CC1CCCCC1)N(O)C(N)=O` (stereo not shown) [Example 8, N-Hydroxy-N-[4-cyclohexyl-3-butyn-2-yl]urea] are 41% and 1900 nM.
For `CC(C)c1ccc(C#CC(C)N(O)C(N)=O)cc1` (stereo not shown) [Example 22, N-Hydroxy-N-[4-[4-(1-methylethyl)phenyl]-3-butyn-2-yl]urea], the inhibition in vivo at 100 µmol/kg in assay [1] amounted to 86%. This molecule came in with an IC50 in assay [2] of 400 nM.
